Measured values from patent US20210054106A1, “OMNIPHILIC NANO-VESICLES BASED ON MODIFIED POLYSACCHARIDES FOR DELIVERY OF ACTIVE AGENTS” (THE STATE OF ISRAEL, MINISTRY OF AGRICULTURE & RURAL …, priority 2018, published 2021).

Assay: Franz diffusion cell model, RB permeation
Type: in vitro ADME
Conditions: sunflower oil donor, PBS pH 7.4 receptor, 32 °C, up to 16 h

CCN(CC)c1ccc2c(-c3ccccc3C(=O)O)c3ccc(=[N+](CC)CC)cc-3oc2c1.[Cl-] [RB, Rhodamine B]
RB permeation across lipophilic membrane into aqueous phase: scarcely permeates
